From publication PMC8044178, “Structural basis of norepinephrine recognition and transport inhibition in neurotransmitter transporters” (Nature Communications, 2021)
Where “and” joins values, the source holds several entries; their conditions need not be identical. Identical values can stand only once.

Legend:
dDAT D121G/S426M = settings: cited from earlier work
dDATmfc = target: T1, dDATmfc (Drosophila melanogaster, UniProt Q7K4Y6, DEL162-202/F471L/L415A/V74A); assay: [3H] nisoxetine binding, scintillation proximity assay, purified dDATmfc; settings: for Specific CPM/p.mole protein: DATmfc, single replicates
T1 construct: GFP-8x-His (C); made in house; host or cells: HEK293S GnTI- cells, BacMam baculovirus transduction
Procedure: (§1) Binding assays were performed with 20 nM of purified dDAT protein by scintillation proximity assay. For determining nisoxetine Kd, [^3H] Nisoxetine (Perkin Elmer) (in 1:5 molar ratio) was used in the range of 0.1 nM to 500 nM with 100 µM desipramine added to the control samples. Competition assays were done with 50 nM [^3H] […] The assays were done in 1 mM DDM, 0.2 mM CHS, 20 mM Tris-Cl (pH 8), 300 mM NaCl and 5% glycerol. The background values were subtracted to plot the final curves in GraphPad prism v5.0.1 and the Kd values were calculated. The IC50 values obtained from binding competition assays were used to deduce the Ki values by Cheng–Prusoff’s equation.

hNET = settings: read-out: nisoxetine-binding affinity Kd; cited from earlier work
dDATNET = target: T2, dDATNET (Drosophila melanogaster, UniProt Q7K4Y6, D121G/DEL162-202/F471L/L415A/S426M/V74A); assay: [3H] nisoxetine binding, scintillation proximity assay, purified dDATNET; settings: for Specific CPM/p.mole protein: DAT_NET, single replicates
T2 construct: GFP-8x-His (C); made in house; host or cells: HEK293S GnTI- cells, BacMam baculovirus transduction
Procedure: as §1

WT dDAT = settings: read-out: nisoxetine-binding affinity Kd; cited from earlier work

Row | Compound | increment in ability to compete for nisoxetine / affinity with hNET-like mutations D121G and S426M in subsite B (dDAT D121G/S426M) | Kd (dDATmfc) | Specific CPM/p.mole protein (dDATmfc; Nisox 0.1 nM) | Specific CPM/p.mole protein (dDATmfc; Nisox 1 nM) | Specific CPM/p.mole protein (dDATmfc; Nisox 3 nM) | Specific CPM/p.mole protein (dDATmfc; Nisox 10 nM) | Specific CPM/p.mole protein (dDATmfc; Nisox 30 nM) | Specific CPM/p.mole protein (dDATmfc; Nisox 100 nM) | Specific CPM/p.mole protein (dDATmfc; Nisox 300 nM) | Specific CPM/p.mole protein (dDATmfc; Nisox 500 nM) | Kd (hNET) | Specific CPM/p.mole protein (dDATNET; Nisox 0.1 nM) | Specific CPM/p.mole protein (dDATNET; Nisox 100 nM) | Specific CPM/p.mole protein (dDATNET; Nisox 300 nM) | Specific CPM/p.mole protein (dDATNET; Nisox 500 nM) | Kd (dDATNET; Nisoxetine Kd, dDATNET) | Kd (dDATNET; dissociation constants (Kd) for nisoxetine, range over the dDAT constructs used in this study (dDATNET, dDATmfc)) | Kd (WT dDAT)
1 | COC(=O)[C@H]1[C@@H](OC(=O)c2ccccc2)C[C@@H]2CC[C@H]1N2C [cocaine] | 10 fold | – | – | – | – | – | – | – | – | – | – | – | – | – | – | – | – | –
2 | CNCCC(Oc1ccccc1OC)c1ccccc1 (stereo not drawn) [nisoxetine] | – | 3.82 ± 0.39 nM | 7 CPM/p.mole protein and 10 CPM/p.mole protein and 3 CPM/p.mole protein and 24 CPM/p.mole protein and 15 CPM/p.mole protein (2×) and 14 CPM/p.mole protein and 9 CPM/p.mole protein and 6 CPM/p.mole protein | 126 CPM/p.mole protein and 128 CPM/p.mole protein and 141 CPM/p.mole protein and 114 CPM/p.mole protein and 102 CPM/p.mole protein and 95 CPM/p.mole protein and 97 CPM/p.mole protein and 78 CPM/p.mole protein and 120 CPM/p.mole protein | 292 CPM/p.mole protein and 269 CPM/p.mole protein and 300 CPM/p.mole protein and 210 CPM/p.mole protein and 245 CPM/p.mole protein and 211 CPM/p.mole protein and 113 CPM/p.mole protein and 184 CPM/p.mole protein and 198 CPM/p.mole protein | 455 CPM/p.mole protein (2×) and 499 CPM/p.mole protein and 413 CPM/p.mole protein (2×) and 477 CPM/p.mole protein and 371 CPM/p.mole protein (2×) and 397 CPM/p.mole protein | 491 CPM/p.mole protein and 537 CPM/p.mole protein and 503 CPM/p.mole protein and 506 CPM/p.mole protein and 442 CPM/p.mole protein (2×) and 439 CPM/p.mole protein and 427 CPM/p.mole protein and 408 CPM/p.mole protein | 566 CPM/p.mole protein and 545 CPM/p.mole protein and 533 CPM/p.mole protein and 507 CPM/p.mole protein and 558 CPM/p.mole protein and 473 CPM/p.mole protein and 465 CPM/p.mole protein and 441 CPM/p.mole protein and 405 CPM/p.mole protein | 627 CPM/p.mole protein and 611 CPM/p.mole protein and 570 CPM/p.mole protein and 569 CPM/p.mole protein and 527 CPM/p.mole protein and 520 CPM/p.mole protein and 528 CPM/p.mole protein and 490 CPM/p.mole protein and 436 CPM/p.mole protein | 632 CPM/p.mole protein and 609 CPM/p.mole protein and 595 CPM/p.mole protein and 628 CPM/p.mole protein and 619 CPM/p.mole protein and 565 CPM/p.mole protein and 554 CPM/p.mole protein and 465 CPM/p.mole protein and 467 CPM/p.mole protein | 1.9 nM | 20 CPM/p.mole protein | 565 CPM/p.mole protein and 636 CPM/p.mole protein and 590 CPM/p.mole protein and 524 CPM/p.mole protein and 548 CPM/p.mole protein and 546 CPM/p.mole protein and 490 CPM/p.mole protein and 531 CPM/p.mole protein and 494 CPM/p.mole protein | 687 CPM/p.mole protein and 533 CPM/p.mole protein (2×) and 630 CPM/p.mole protein and 583 CPM/p.mole protein and 563 CPM/p.mole protein and 581 CPM/p.mole protein and 730 CPM/p.mole protein and 516 CPM/p.mole protein | 735 CPM/p.mole protein and 683 CPM/p.mole protein and 709 CPM/p.mole protein and 618 CPM/p.mole protein and 586 CPM/p.mole protein and 593 CPM/p.mole protein and 630 CPM/p.mole protein and 670 CPM/p.mole protein and 642 CPM/p.mole protein | 2.79 ± 0.27 nM | 2.8 to 3.8 nM | 5 nM
